Values quoted from earlier work, collected in paper PMC5260004, “Permeability across a novel microfluidic blood-tumor barrier model” (Fluids and Barriers of the CNS, 2017).

System: P-gp
Set-up: method as in PMID 23916719
Conditions: in vivo, rhodamine 123 and an inhibitor of P-gp administered concurrently

For `COC(=O)c1ccccc1-c1c2ccc(=N)cc-2oc2cc(N)ccc12` [Rho123, Rhodamine 123], the “fold higher dye accumulation in brain with P-gp inhibitor than in the absence of efflux inhibition” value is given as 10- to 12 fold.
